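Dose response: 5 concentrations. Exposure: 48 h. Format: 96-well plates. Endpoint: linear interpolation; highest concentration if not reached. TGI is the concentration that stops growth completely.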
What follows are compounds tested on M14 melanoma (assay: NCI anticancer screen, dose series, 48 h).
Work on COC(=O)[C@@H](NC(=O)N(Cc1ccccc1)C[C@H](CC(C)C)NC(=O)[C@@H](NC(=O)OC(C)(C)C)C(C)C)C(C)C yielded a TGI greater than 100 µM.
CCOP(=O)(OCC)/C(C#N)=C/c1ccc(-c2cc(C(F)(F)F)cc(C(F)(F)F)c2)o1 was tested, and the TGI was 23.1 µM.
Compound CN1CCN(/C(N)=C(\C#N)C(=O)Nc2ccc(Cl)cc2)CC1 has a TGI greater than 100 µM.
Compound Cc1ccc(S(=O)(=O)C2=C(C(C)C)N=NC2(C)C)cc1 has a TGI greater than 100 µM.
Work on COc1ccc(/C(Cl)=C(\C#N)c2ccc(OC)c(OC)c2)cc1OC yielded a TGI greater than 100 µM.

The compounds below were run on MDA-N (assay: NCI anticancer screen, dose series, 48 h).
For CN(C)CCCNc1ccc2ncn3c4ccc(O)cc4c(=O)c1c23, the TGI was 17.6 µM.
OC(C/C=N/N=C/CC(O)(C(F)(F)Cl)C(F)(F)Cl)(C(F)(F)Cl)C(F)(F)Cl gave a TGI greater than 10 µM.
For COc1cc2c(cc1O)NC(=O)[C@@H]1CCCN1C2=O, the TGI was greater than 100 µM.
Compound COc1ccc2nc(-c3ccccc3)c(=O)[nH]c2c1 has a TGI greater than 100 µM.
O=C1C=C(Nc2ccc(S(=O)(=O)Nc3nccs3)cc2)c2ccccc2C1=O was tested, and the TGI was 38.5 µM.
Work on C=CC1(CC[C@]2(c3ccc(OC)c(OC)c3)C=[N+]([O-])O[C@H](O[C@@H]3CCCC[C@H]3C(C)(C)c3ccccc3)C2)OCC(C)(C)CO1 yielded a TGI of 24.7 µM.
With Oc1c(Br)ccc2cccnc12 the TGI was greater than 100 µM.
COc1ccc(N2C(=O)C(=O)N(c3ccc(N=Nc4ccccc4)cc3)C2=S)cc1 was tested, and the TGI was 40.3 µM.
COc1cccc(-c2nc(-c3cnccn3)n(C/C=C/c3ccccc3)n2)c1 gave a TGI greater than 10 µM.
Compound COC(=O)[C@@H](NC(=O)N(Cc1ccccc1)C[C@H](CC(C)C)NC(=O)[C@@H](NC(=O)OC(C)(C)C)C(C)C)C(C)C has a TGI greater than 100 µM.
CCOP(=O)(OCC)/C(C#N)=C/c1ccc(-c2cc(C(F)(F)F)cc(C(F)(F)F)c2)o1 showed a TGI of 27.2 µM.
Work on CN1CCN(/C(N)=C(\C#N)C(=O)Nc2ccc(Cl)cc2)CC1 yielded a TGI greater than 100 µM.
Compound Cc1ccc(S(=O)(=O)C2=C(C(C)C)N=NC2(C)C)cc1 has a TGI greater than 100 µM.
Compound COc1ccc(/C(Cl)=C(\C#N)c2ccc(OC)c(OC)c2)cc1OC has a TGI greater than 100 µM.
In the case of CS(=O)(=O)N1CC(CCl)c2ccc(O)cc21 (configuration not stated), the TGI is reported as 3.54 µM.

Each compound was assayed on NCI-H522 lung (assay: NCI anticancer screen, dose series, 48 h).
Work on CN(C)CCCNc1ccc2ncn3c4ccc(O)cc4c(=O)c1c23 yielded a TGI of 3.16 µM.
Work on OC(C/C=N/N=C/CC(O)(C(F)(F)Cl)C(F)(F)Cl)(C(F)(F)Cl)C(F)(F)Cl yielded a TGI greater than 10 µM.
Compound COc1cc2c(cc1O)NC(=O)[C@@H]1CCCN1C2=O has a TGI greater than 100 µM.
Work on COc1ccc2nc(-c3ccccc3)c(=O)[nH]c2c1 yielded a TGI greater than 100 µM.
For O=C1C=C(Nc2ccc(S(=O)(=O)Nc3nccs3)cc2)c2ccccc2C1=O, the TGI was greater than 100 µM.
In the case of C=CC1(CC[C@]2(c3ccc(OC)c(OC)c3)C=[N+]([O-])O[C@H](O[C@@H]3CCCC[C@H]3C(C)(C)c3ccccc3)C2)OCC(C)(C)CO1, the TGI is reported as 17.1 µM.
Oc1c(Br)ccc2cccnc12 showed a TGI of 6.21 µM.
In the case of COc1ccc(N2C(=O)C(=O)N(c3ccc(N=Nc4ccccc4)cc3)C2=S)cc1, the TGI is reported as 20.2 µM.
With COc1cccc(-c2nc(-c3cnccn3)n(C/C=C/c3ccccc3)n2)c1 the TGI was greater than 10 µM.
With COC(=O)[C@@H](NC(=O)N(Cc1ccccc1)C[C@H](CC(C)C)NC(=O)[C@@H](NC(=O)OC(C)(C)C)C(C)C)C(C)C the TGI was greater than 100 µM.
CCOP(=O)(OCC)/C(C#N)=C/c1ccc(-c2cc(C(F)(F)F)cc(C(F)(F)F)c2)o1 gave a TGI of 24.6 µM.
Cc1ccc(S(=O)(=O)C2=C(C(C)C)N=NC2(C)C)cc1 showed a TGI greater than 100 µM.
With COc1ccc(/C(Cl)=C(\C#N)c2ccc(OC)c(OC)c2)cc1OC the TGI was greater than 100 µM.
CS(=O)(=O)N1CC(CCl)c2ccc(O)cc21 (configuration not stated) was tested, and the TGI was 5.8 µM.

The compounds below were run on OVCAR-8 ovarian (assay: NCI anticancer screen, dose series, 48 h).
For CN(C)CCCNc1ccc2ncn3c4ccc(O)cc4c(=O)c1c23, the TGI was 11.7 µM.
In the case of OC(C/C=N/N=C/CC(O)(C(F)(F)Cl)C(F)(F)Cl)(C(F)(F)Cl)C(F)(F)Cl, the TGI is reported as greater than 10 µM.
With COc1cc2c(cc1O)NC(=O)[C@@H]1CCCN1C2=O the TGI was greater than 100 µM.
In the case of COc1ccc2nc(-c3ccccc3)c(=O)[nH]c2c1, the TGI is reported as greater than 100 µM.
For O=C1C=C(Nc2ccc(S(=O)(=O)Nc3nccs3)cc2)c2ccccc2C1=O, the TGI was 47.6 µM.
C=CC1(CC[C@]2(c3ccc(OC)c(OC)c3)C=[N+]([O-])O[C@H](O[C@@H]3CCCC[C@H]3C(C)(C)c3ccccc3)C2)OCC(C)(C)CO1 showed a TGI of 40.6 µM.
Work on Oc1c(Br)ccc2cccnc12 yielded a TGI greater than 100 µM.
With COc1ccc(N2C(=O)C(=O)N(c3ccc(N=Nc4ccccc4)cc3)C2=S)cc1 the TGI was 35.6 µM.
With COc1cccc(-c2nc(-c3cnccn3)n(C/C=C/c3ccccc3)n2)c1 the TGI was greater than 10 µM.
With COC(=O)[C@@H](NC(=O)N(Cc1ccccc1)C[C@H](CC(C)C)NC(=O)[C@@H](NC(=O)OC(C)(C)C)C(C)C)C(C)C the TGI was greater than 100 µM.
In the case of CCOP(=O)(OCC)/C(C#N)=C/c1ccc(-c2cc(C(F)(F)F)cc(C(F)(F)F)c2)o1, the TGI is reported as 32 µM.
CN1CCN(/C(N)=C(\C#N)C(=O)Nc2ccc(Cl)cc2)CC1 gave a TGI greater than 100 µM.
With Cc1ccc(S(=O)(=O)C2=C(C(C)C)N=NC2(C)C)cc1 the TGI was greater than 100 µM.
CS(=O)(=O)N1CC(CCl)c2ccc(O)cc21 (configuration not stated) gave a TGI of 7.33 µM.

The compounds below were run on PC-3 prostate (assay: NCI anticancer screen, dose series, 48 h).
With CN(C)CCCNc1ccc2ncn3c4ccc(O)cc4c(=O)c1c23 the TGI was 14.4 µM.
In the case of OC(C/C=N/N=C/CC(O)(C(F)(F)Cl)C(F)(F)Cl)(C(F)(F)Cl)C(F)(F)Cl, the TGI is reported as greater than 10 µM.
Work on COc1cc2c(cc1O)NC(=O)[C@@H]1CCCN1C2=O yielded a TGI greater than 100 µM.
Work on COc1ccc2nc(-c3ccccc3)c(=O)[nH]c2c1 yielded a TGI greater than 100 µM.
O=C1C=C(Nc2ccc(S(=O)(=O)Nc3nccs3)cc2)c2ccccc2C1=O showed a TGI greater than 100 µM.
C=CC1(CC[C@]2(c3ccc(OC)c(OC)c3)C=[N+]([O-])O[C@H](O[C@@H]3CCCC[C@H]3C(C)(C)c3ccccc3)C2)OCC(C)(C)CO1 was tested, and the TGI was 28.3 µM.
Compound Oc1c(Br)ccc2cccnc12 has a TGI greater than 100 µM.
With COc1ccc(N2C(=O)C(=O)N(c3ccc(N=Nc4ccccc4)cc3)C2=S)cc1 the TGI was 33.8 µM.
For COc1cccc(-c2nc(-c3cnccn3)n(C/C=C/c3ccccc3)n2)c1, the TGI was greater than 10 µM.
COC(=O)[C@@H](NC(=O)N(Cc1ccccc1)C[C@H](CC(C)C)NC(=O)[C@@H](NC(=O)OC(C)(C)C)C(C)C)C(C)C was tested, and the TGI was greater than 100 µM.
With CCOP(=O)(OCC)/C(C#N)=C/c1ccc(-c2cc(C(F)(F)F)cc(C(F)(F)F)c2)o1 the TGI was 24 µM.
For CN1CCN(/C(N)=C(\C#N)C(=O)Nc2ccc(Cl)cc2)CC1, the TGI was greater than 100 µM.
Cc1ccc(S(=O)(=O)C2=C(C(C)C)N=NC2(C)C)cc1 was tested, and the TGI was greater than 100 µM.
COc1ccc(/C(Cl)=C(\C#N)c2ccc(OC)c(OC)c2)cc1OC was tested, and the TGI was greater than 100 µM.
CS(=O)(=O)N1CC(CCl)c2ccc(O)cc21 (configuration not stated) gave a TGI of 5.88 µM.

Each compound was assayed on SN12C renal (assay: NCI anticancer screen, dose series, 48 h).
Compound CN(C)CCCNc1ccc2ncn3c4ccc(O)cc4c(=O)c1c23 has a TGI of 16.2 µM.
For OC(C/C=N/N=C/CC(O)(C(F)(F)Cl)C(F)(F)Cl)(C(F)(F)Cl)C(F)(F)Cl, the TGI was greater than 10 µM.
COc1cc2c(cc1O)NC(=O)[C@@H]1CCCN1C2=O showed a TGI greater than 100 µM.
With COc1ccc2nc(-c3ccccc3)c(=O)[nH]c2c1 the TGI was greater than 100 µM.
Compound O=C1C=C(Nc2ccc(S(=O)(=O)Nc3nccs3)cc2)c2ccccc2C1=O has a TGI of 47.2 µM.
Compound C=CC1(CC[C@]2(c3ccc(OC)c(OC)c3)C=[N+]([O-])O[C@H](O[C@@H]3CCCC[C@H]3C(C)(C)c3ccccc3)C2)OCC(C)(C)CO1 has a TGI of 22.8 µM.
Oc1c(Br)ccc2cccnc12 was tested, and the TGI was greater than 100 µM.
COc1ccc(N2C(=O)C(=O)N(c3ccc(N=Nc4ccccc4)cc3)C2=S)cc1 showed a TGI of 33.2 µM.
With COc1cccc(-c2nc(-c3cnccn3)n(C/C=C/c3ccccc3)n2)c1 the TGI was greater than 10 µM.
CCOP(=O)(OCC)/C(C#N)=C/c1ccc(-c2cc(C(F)(F)F)cc(C(F)(F)F)c2)o1 was tested, and the TGI was 29.1 µM.
Work on CN1CCN(/C(N)=C(\C#N)C(=O)Nc2ccc(Cl)cc2)CC1 yielded a TGI greater than 100 µM.
In the case of Cc1ccc(S(=O)(=O)C2=C(C(C)C)N=NC2(C)C)cc1, the TGI is reported as greater than 100 µM.
COc1ccc(/C(Cl)=C(\C#N)c2ccc(OC)c(OC)c2)cc1OC was tested, and the TGI was greater than 100 µM.
CS(=O)(=O)N1CC(CCl)c2ccc(O)cc21 (configuration not stated) was tested, and the TGI was 14.5 µM.

The compounds below were run on SW-620 colon (assay: NCI anticancer screen, dose series, 48 h).
In the case of CN(C)CCCNc1ccc2ncn3c4ccc(O)cc4c(=O)c1c23, the TGI is reported as 16.4 µM.
OC(C/C=N/N=C/CC(O)(C(F)(F)Cl)C(F)(F)Cl)(C(F)(F)Cl)C(F)(F)Cl gave a TGI greater than 10 µM.
Work on COc1cc2c(cc1O)NC(=O)[C@@H]1CCCN1C2=O yielded a TGI greater than 100 µM.
COc1ccc2nc(-c3ccccc3)c(=O)[nH]c2c1 gave a TGI greater than 100 µM.
Work on O=C1C=C(Nc2ccc(S(=O)(=O)Nc3nccs3)cc2)c2ccccc2C1=O yielded a TGI of 43 µM.
C=CC1(CC[C@]2(c3ccc(OC)c(OC)c3)C=[N+]([O-])O[C@H](O[C@@H]3CCCC[C@H]3C(C)(C)c3ccccc3)C2)OCC(C)(C)CO1 showed a TGI greater than 46.5 µM.
Compound Oc1c(Br)ccc2cccnc12 has a TGI greater than 45.6 µM.
For COc1ccc(N2C(=O)C(=O)N(c3ccc(N=Nc4ccccc4)cc3)C2=S)cc1, the TGI was 32.6 µM.
With COc1cccc(-c2nc(-c3cnccn3)n(C/C=C/c3ccccc3)n2)c1 the TGI was greater than 10 µM.
For COC(=O)[C@@H](NC(=O)N(Cc1ccccc1)C[C@H](CC(C)C)NC(=O)[C@@H](NC(=O)OC(C)(C)C)C(C)C)C(C)C, the TGI was greater than 100 µM.
With CCOP(=O)(OCC)/C(C#N)=C/c1ccc(-c2cc(C(F)(F)F)cc(C(F)(F)F)c2)o1 the TGI was 28.2 µM.
With CN1CCN(/C(N)=C(\C#N)C(=O)Nc2ccc(Cl)cc2)CC1 the TGI was greater than 100 µM.
Work on Cc1ccc(S(=O)(=O)C2=C(C(C)C)N=NC2(C)C)cc1 yielded a TGI greater than 100 µM.
COc1ccc(/C(Cl)=C(\C#N)c2ccc(OC)c(OC)c2)cc1OC was tested, and the TGI was greater than 100 µM.
CS(=O)(=O)N1CC(CCl)c2ccc(O)cc21 (configuration not stated) was tested, and the TGI was 11.5 µM.

Reference: PubChem BioAssay (NCI)
